# Like-named read-outs stand apart in the source and are kept apart here.
# Key:
# PKC β II = biological target: T1, PKC β II (Homo sapiens, UniProt P05771); assay: PKC enzyme assay (BIOTRAK Protein kinase C enzyme assay system, 32P-ATP phosphorylation of peptide […]); type: biochemical; conditions: for Ratio α/β: IC50 PKC α / IC50 PKC β II
# T1 construct: purchased CALBIOCHEM
# PKC α = biological target: T2, PKC α (Homo sapiens, UniProt P17252); assay: as above; type: biochemical
# T2 construct: purchased CALBIOCHEM
# How it was run: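 Recombinant human PKC (400 ng/ml solution) phosphorylated the supplied peptide with [γ-32P]ATP in calcium, phosphatidylserine/PMA, DTT and Mg-ATP buffer, 15 min at 37°C. Compounds were tested at 1 nM-10 µM final. Phosphocellulose-bound radioactivity relative to DMSO gave inhibition, from which IC50 was calculated.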
# [1] = Protein Kinase C, Human Recombinant, test substance 1 nM-10 µM, 37°C, 15 minutes, read-out: Inhibition of PKC activity IC50 PKC β II
# [2] = Protein Kinase C, Human Recombinant, test substance 1 nM-10 µM, 37°C, 15 minutes, read-out: Inhibition of PKC activity IC50 PKC α
# [3] = read-out: Inhibition of PKC activity IC50 PKC β II, Protein Kinase C, Human Recombinant, test substance 1 nM-10 µM, 37°C, 15 minutes
# [4] = read-out: Inhibition of PKC activity IC50 PKC α, Protein Kinase C, Human Recombinant, test substance 1 nM-10 µM, 37°C, 15 minutes
# T1 sequence (P05771 other isoform, or with tags, fused parts or gaps): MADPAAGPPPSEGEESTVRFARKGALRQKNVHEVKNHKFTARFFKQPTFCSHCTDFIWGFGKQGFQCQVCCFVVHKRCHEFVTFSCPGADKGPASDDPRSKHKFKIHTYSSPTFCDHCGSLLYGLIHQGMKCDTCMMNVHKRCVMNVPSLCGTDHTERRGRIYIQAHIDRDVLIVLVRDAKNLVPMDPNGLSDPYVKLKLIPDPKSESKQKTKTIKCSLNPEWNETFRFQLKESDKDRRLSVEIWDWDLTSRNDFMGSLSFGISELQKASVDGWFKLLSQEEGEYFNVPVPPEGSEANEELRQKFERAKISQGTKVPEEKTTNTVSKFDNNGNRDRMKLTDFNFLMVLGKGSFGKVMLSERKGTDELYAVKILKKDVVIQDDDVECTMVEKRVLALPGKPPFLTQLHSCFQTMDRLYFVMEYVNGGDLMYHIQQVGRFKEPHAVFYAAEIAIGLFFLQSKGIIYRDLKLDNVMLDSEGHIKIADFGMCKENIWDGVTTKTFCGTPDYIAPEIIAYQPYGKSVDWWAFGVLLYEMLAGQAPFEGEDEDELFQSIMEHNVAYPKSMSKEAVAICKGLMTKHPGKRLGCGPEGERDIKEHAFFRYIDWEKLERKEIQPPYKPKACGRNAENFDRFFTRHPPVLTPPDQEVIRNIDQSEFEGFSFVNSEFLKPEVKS
SMILES,Ratio α/β (PKC β II),IC50 (PKC α; [2]),IC50 (PKC β II),IC50 (PKC α),IC50 (PKC β II; [3]),IC50 (PKC α; [4]),IC50 (PKC β II; [1])
"CN(C)CC1CCn2c(c(C3=C(Nc4ccccc4)C(=O)NC3=O)c3ccccc32)C1 (centres unmarked) [Example 4-2, 3-[8-(dimethylaminomethyl)-6,7,8,9-tetrahydropyrido[1,2-a]indol-10-yl]-4-(phenylamino)-1H-pyrrole-2,5-dione]",51,257 nM,,,,,5 nM
CCN(C)C[C@H]1CCn2c(c(C3=C(Nc4ccccc4)C(=O)NC3=O)c3ccccc32)C1 [Example 4-24],68,,,,3 nM,204 nM,
O=C1NC(=O)C(c2c3n(c4ccccc24)CC[C@H](CN2CCOCC2)C3)=C1Nc1ccccc1 [Example 4-26],85,,,,9 nM,768 nM,
O=C1NC(=O)C(c2c3n(c4ccccc24)CC(CN2CCC(O)CC2)C3)=C1Nc1ccccc1 (centres unmarked) [Example 4-27],64,,,,13 nM,831 nM,
CCNCC1Cc2c(C3=C(Nc4ccccc4)C(=O)NC3=O)c3ccccc3n2C1 (centres unmarked) [Example 4-31],64,,,,3 nM,186 nM,
CCNCC1Cc2c(C3=C(Nc4ccc(F)cc4)C(=O)NC3=O)c3ccccc3n2C1 (centres unmarked) [Example 4-33],75,,,,4 nM,321 nM,
O=C1NC(=O)C(c2c3n(c4ccccc24)CCCC(Cn2ccnc2)C3)=C1Nc1ccccc1 (centres unmarked) [Example 4-38],244,,,,41 nM,> 10000 nM,
CCN(C)C[C@@H]1CCc2c(C3=C(Nc4ccccc4)C(=O)NC3=O)c3ccccc3n2C1 [Example 4-40],93,,6 nM,557 nM,,,
CN(C)C[C@@H]1CCc2c(C3=C(Nc4ccccc4)C(=O)NC3=O)c3ccccc3n2C1 [Example 4-41],74,,,,,445 nM,6 nM
CCN(C)C[C@@H]1CCc2c(C3=C(Nc4cccc(SC)c4)C(=O)NC3=O)c3ccccc3n2C1 [Example 4-48],74,,,,34 nM,2530 nM,
CCN(C)C[C@@H]1CCc2c(C3=C(Nc4ccc5c(c4)OCO5)C(=O)NC3=O)c3ccccc3n2C1 [Example 4-49],82,,,,33 nM,2710 nM,
CCN(CC)C[C@@H]1CCc2c(C3=C(Nc4ccccc4)C(=O)NC3=O)c3ccccc3n2C1 [Example 4-50],82,,,,6 nM,494 nM,
O=C1NC(=O)C(c2c3n(c4ccccc24)C[C@@H](CO)C=C3)=C1Nc1ccccc1 [Example 4-53],106,,,,14 nM,1480 nM,
CCN(CC)C[C@H]1CCc2c(C3=C(Nc4ccccc4)C(=O)NC3=O)c3ccccc3n2C1 [Example 4-54],57,,,,10 nM,569 nM,
CN(C)C[C@H]1CCc2c(C3=C(Nc4ccccc4)C(=O)NC3=O)c3ccccc3n2C1 [Example 4-55],63,,,,,252 nM,4 nM
COC[C@H]1Cc2c(C3=C(Nc4ccccc4)C(=O)NC3=O)c3ccccc3n2C1 [Example 4-56],131,,40 nM,5220 nM,,,
COC[C@H]1Cc2c(C3=C(Nc4ccc(F)cc4)C(=O)NC3=O)c3ccccc3n2C1 [Example 4-57],77,,,,84 nM,6460 nM,
O=C1NC(=O)C(c2c3n(c4ccccc24)C[C@H](CO)C3)=C1Nc1ccccc1 [Example 4-58],73,,,,,1020 nM,14 nM
O=C1NC(=O)C(c2c3n(c4ccccc24)C[C@@H](CO)C3)=C1Nc1ccccc1 [Example 4-60],115,,,,,458 nM,4 nM
CCN(C)C[C@H]1Cc2c(C3=C(Nc4ccccc4)C(=O)NC3=O)c3ccccc3n2C1 [Example 4-61],96,,,,,481 nM,5 nM
COc1ccc(NC2=C(c3c4n(c5ccccc35)C[C@@H](CO)C4)C(=O)NC2=O)cc1 [Example 4-62],50,,,,16 nM,794 nM,
CCN(C)C[C@H]1Cc2c(C3=C(Nc4ccc(OC)cc4)C(=O)NC3=O)c3ccccc3n2C1 [Example 4-63],69,,,,16 nM,1100 nM,
CN(C)C[C@H]1Cc2c(C3=C(Nc4ccccc4)C(=O)NC3=O)c3ccccc3n2C1 [Example 4-64],37,,,,,148 nM,4 nM
CCN(CC)C[C@H]1Cc2c(C3=C(Nc4ccccc4)C(=O)NC3=O)c3ccccc3n2C1 [Example 4-65],61,,,,,1950 nM,32 nM
CCN(C)C[C@H]1Cc2c(C3=C(Nc4ccc(F)cc4)C(=O)NC3=O)c3ccccc3n2C1 [Example 4-66],53,,,,12 nM,632 nM,
O=C1NC(=O)C(c2c3n(c4ccccc24)C[C@@H](CN2CCCC2)C3)=C1Nc1ccccc1 [Example 4-67],68,,,,,542 nM,8 nM
O=C1NC(=O)C(c2c3n(c4ccccc24)C[C@@H](CO)C3)=C1Nc1ccc(F)cc1 [Example 4-68],85,,,,4 nM,341 nM,
CN(C)C[C@H]1Cc2c(C3=C(Nc4ccc(F)cc4)C(=O)NC3=O)c3ccccc3n2C1 [Example 4-69],76,,,,6 nM,455 nM,
CNC[C@H]1Cc2c(C3=C(Nc4ccccc4)C(=O)NC3=O)c3ccccc3n2C1 [Example 4-70],159,,,,1 nM,159 nM,
O=C1NC(=O)C(c2c3n(c4ccccc24)C[C@@H](CN2CCOCC2)C3)=C1Nc1ccccc1 [Example 4-71],108,,,,41 nM,4450 nM,

# Now from value to compound, other results behind:
Ratio α/β (PKC β II),IC50 (PKC α; [2]),IC50 (PKC β II),IC50 (PKC α),IC50 (PKC β II; [3]),IC50 (PKC α; [4]),SMILES,IC50 (PKC β II; [1])
34,3660 nM,,,,,"NC(=O)N1CCC(Cn2cc(C3=C(Nc4ccccc4)C(=O)NC3=O)c3ccccc32)CC1 [Example 3-6, 3-[1-{(1-carbamoylpiperidin-4-yl)methyl}-1H-indol-3-yl]-4-(phenylamino)-1H-pyrrole-2,5-dione]",108 nM
46,2560 nM,,,,,"Cl.N=C(N)N1CCC(Cn2cc(C3=C(Nc4ccccc4)C(=O)NC3=O)c3ccccc32)CC1 [Example 3-7, 3-[1-{(1-amidinopiperidin-4-yl)methyl}-1H-indol-3-yl]-4-(phenylamino)-1H-pyrrole-2,5-dione hydrochloride]",56 nM
61,852 nM,,,,,"O=C1NC(=O)C(c2c3n(c4ccccc24)CCC(CO)C3)=C1Nc1ccccc1 (centres unmarked) [Example 4-1, 3-[8-hydroxymethyl-6,7,8,9-tetrahydropyrido[1,2-a]indol-10-yl]-4-(phenylamino)-1H-pyrrole-2,5-dione]",14 nM
,,16 nM,1630 nM,,,"O=C1NC(=O)C(c2c3n(c4ccccc24)CCC(Cn2ccnc2)C3)=C1Nc1ccccc1 (centres unmarked) [Example 4-3, 3-[8-(1-imidazolylmethyl)-6,7,8,9-tetrahydropyrido[1,2-a]indol-10-yl]-4-(phenylamino)-1H-pyrrole-2,5-dione]",
134,,,,25 nM,3360 nM,O=C1NC(=O)C(c2c3n(c4ccccc24)CC(CN2CCSCC2)C3)=C1Nc1ccccc1 (centres unmarked) [Example 4-28],
131,,,,5 nM,654 nM,O=C1NC(=O)C(c2c3n(c4ccccc24)CC[C@H](CN2CCSCC2)C3)=C1Nc1ccccc1 [Example 4-30],
60,,,,4 nM,228 nM,CNCC1Cc2c(C3=C(Nc4ccc(F)cc4)C(=O)NC3=O)c3ccccc3n2C1 (centres unmarked) [Example 4-32],
85,,,,7 nM,592 nM,O=C1NC(=O)C(c2c3n(c4ccccc24)CC(Cn2ccnc2)C3)=C1Nc1ccccc1 (centres unmarked) [Example 4-37],
121,,,,22 nM,2660 nM,O=C1NC(=O)C(c2c3n(c4ccccc24)C[C@H](CN2CCOCC2)CC3)=C1Nc1ccccc1 [Example 4-42],
107,,,,7 nM,749 nM,O=C1NC(=O)C(c2c3n(c4ccccc24)C[C@H](CO)C=C3)=C1Nc1ccccc1 [Example 4-43],
112,,,,89 nM,> 10000 nM,NC(=O)c1cccc(NC2=C(c3c4n(c5ccccc35)C[C@H](CO)CC4)C(=O)NC2=O)c1 [Example 4-46],
101,,7 nM,708 nM,,,CCN(C)CC1CCc2c(C3=C(Nc4ccccc4)C(=O)NC3=O)c3ccccc3n2C1 (centres unmarked) [Example 4-51],
68,,,,57 nM,3880 nM,O=C1NC(=O)C(c2c3n(c4ccccc24)C[C@@H](CN2CCOCC2)CC3)=C1Nc1ccccc1 [Example 4-52],
109,,,,46 nM,4990 nM,O=C1NC(=O)C(c2c3n(c4ccccc24)C[C@H](CN2CCOCC2)C3)=C1Nc1ccccc1 [Example 4-59],

# — patent EP1120414A1, “DISUBSTITUTED MALEIMIDE COMPOUNDS AND MEDICINAL UTILIZATION THEREOF” (Japan Tobacco Inc., priority 1998, dated 2000)
